{
  "source": "patent US20260209196A1",
  "about": "“AMIDINOUREA DERIVATIVES AND THEIR USE IN THE TREATMENT OF CANCER” (UNIVERSITE COTE D'AZUR, priority 2022, published 2026)",
  "type_in_all_cases": "cell-based",
  "key": {"A375": {"tested_on": "A375", "assay": "Cell viability of A375 melanoma cells by Trypan Blue exclusion", "settings": "for viability at 5 µM: Homo sapiens, A-375, viable cells as mean percentage of control cells ± SEM, N=3", "procedure": "The BRAFV600E mutant melanoma line A375 (CRL-1619) was purchased from ATCC (Manassas, VA, USA). The A375 were maintained in glutamine-containing DMEM supplemented with 10% heat-inactivated fetal bovine serum, penicillin (100 units/ml) and streptomycin ([…]).\n(§1) Cell viability was measured by the Trypan Blue exclusion method. Briefly, cells washed with PBS were harvested by a 3-minute incubation in 0.05% trypsin before neutralization with serum containing medium. An aliquot of the cell suspension was then mixed 1:1 with a 0.4% Trypan blue solution and viable cells were counted within 5 minutes on Kova slides under an optical microscope. Results are expressed as the mean percentage of control cells±SEM. N=3"}, "NCI 60 cell panel": {"tested_on": "NCI 60 cell panel", "assay": "DTP-NCI assay (NCI 60 cell screen, single high dose)", "settings": "Homo sapiens, 48 h; single high dose 10^-5 M, full NCI 60 cell panel; growth relative to no-drug control and to time zero number of cells; read-out: DTP-NCI (mean of the percent growth of treated cells)", "procedure": "The effect of 10 μM of MTF504 was monitored on a panel 60 cell lines representing nine distinct tumour types: leukemia, colon, lung, central nervous system, renal, melanoma, ovarian, breast and prostate. Briefly, the compound was sent to the US National Cancer Institute where its antineoplastic effects were monitored on the panel of cell lines after 48 hours of treatment following a standardized protocol.\nAll compounds submitted to the NCI 60 Cell screen are tested initially at a single high dose (10^-5 M) in the full NCI 60 cell panel. The results are reported as a mean of the percent growth of treated cells. The number reported is growth relative to the no-drug control, and relative to the time zero number of cells. This allows detection of […]."}, "normal human melanocytes": {"tested_on": "normal human melanocytes", "assay": "Toxicity on normal human melanocytes by Trypan blue counting", "settings": "FIG. 3", "procedure": "Normal human melanocytes were obtained from the foreskins of Caucasian children and grown in MCDB 153 medium supplemented with 2% fetal calf serum, 0.5 mg/ml hydrocortisone, 5 mg/ml insulin, 16 nM phorbol-12 myristate 13-acetate, 1 ng/ml basic fibroblast growth factor, 20 mg/ml bovine pituitary extract, […], and penicillin/streptomycin (100 U/ml/[…]). All cells were maintained in humidified incubators at 37° C. with 5% CO2.\nas §1"}, "[1]": {"settings": "24 h, read-out: Viab A375 5 μM/24 h"}, "[2]": {"settings": "48 h, read-out: Viab A375 5 μM/48 h"}},
  "note": "Where two headings read alike, the source gives them in different places.",
  "data": [
    {"smiles": "N=C(NC(=O)Nc1ccccc1Cl)Nc1nc2ccccc2s1", "note": "[MTF504, N-benzo[d]thiazol-2-yl-N″-(2-chloroaniline-carbonyl)-guanidine]", "values": [
      {"measurement": "viability at 5 µM", "setting": "A375; [1]", "value": 26, "unit": "%"},
      {"measurement": "viability at 5 µM", "setting": "A375; [2]", "value": 7.1, "unit": "%"},
      {"measurement": "decrease of melanoma cell viability versus CRO15 and MTF319", "setting": "A375; after 24 hours of treatment, FIG. 5", "value": "more efficient than previously reported compounds"},
      {"measurement": "activity at 10 µM", "setting": "NCI 60 cell panel", "value": 25.4, "unit": "%"},
      {"measurement": "toxicity on normal human melanocytes", "setting": "normal human melanocytes", "value": "absence of toxicity"}
    ]},
    {"smiles": "N=C(NC(=O)Nc1ccc(Br)cc1)Nc1nc(-c2cccc([N+](=O)[O-])c2)cs1", "note": "[MTF427, N-4-(3-nitrophenyl) thiazol-2-yl-N″-(4-bromoaniline-carbonyl)-guanidine]", "values": [
      {"measurement": "viability at 5 µM", "setting": "A375; [1]", "value": 94.2, "unit": "%"},
      {"measurement": "viability at 5 µM", "setting": "A375; [2]", "value": 34.4, "unit": "%"},
      {"measurement": "activity at 10 µM", "setting": "NCI 60 cell panel", "value": 72.5, "unit": "%"}
    ]}
  ]
}
